In series [1] the test system is macrophages infected with L. donovani. Briefly: Cytotoxicity on macrophages infected with L. donovani. The format is cell-based, mouse.
Series [2] relates to axenic amastigotes of L. donovani, strain MHOM-ET-67/L82. Briefly: In vitro activity against L. donovani axenic amastigotes, serial drug dilution assay. The settings on record: axenic amastigotes, strain MHOM-ET-67/L82, means of two independent assays, read-out: IC50 L. don. axen. In kind it is cell-based, Leishmania donovani. Here is the method:
(§1) Drug stock solutions (10mg/ml) were in DMSO (100%). […] Selectivity index (SI) was calculated as IC50 L6 cells/IC50 parasite.

Series [3] deals with T.b.rhodesiense (STIB900). Briefly: T.b.rhodesiense (STIB900) acute mouse model. The format is in vivo. Conditions: daily oral administration of up to 25 mg/kg over a 4 day period, acutely infected mouse model. The method, then: The STIB900 acute mouse model mimics the first stage of the disease. Four female NMRI mice were used per experimental group. Each mouse was inoculated i.p. with 10^4 bloodstream forms of STIB900, respectively. Heparinized blood from a donor mouse with approximately 5x10^6 /ml parasitaemia was suspended in PSG to obtain a trypanosome suspension of […]. Each mouse was injected with 0.25 ml. Compounds were formulated in 100% DMSO, diluted 10-fold in distilled water. Compound treatment was initiated 3 days post-infection on four consecutive days for all administration routes (i.p., p.o.) in a volume of 0.1 ml/10 g. Three mice served as infected-untreated controls. […] Parasitaemia was monitored using smears of tail-snip blood twice a week after treatment for two weeks followed by once a week until 60 days post-infection. Mice are considered cured when there is no parasitaemia relapse detected in the tail blood over the 60-day observation period. Mean relapse days were determined as day of relapse post-infection of mice.

In series [4] the test system is intracellular amastigotes of L. donovani strain MHOM-ET-67/L82. The experiment in a line: Activity against Leishmania donovani intracellular amastigotes in mouse peritoneal macrophages. The settings on record: for IC50: read-out: IC50 L. don. intracell. The method in brief:
(§2)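 Axenic amastigotes grown at pH 5.4 infected mouse peritoneal macrophages for 4 h before free parasites were washed off. Next day, seven 3-fold drug dilutions (30–0.04 μg/ml) were added for 96 h. Giemsa-stained infected macrophages were counted, burden reduction was taken vs untreated controls, and IC50 came from linear regression.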

Series [5] has as its system P. falciparum strain K1. Briefly: In vitro activity against P. falciparum, serial drug dilution assay. Here is the method: as §1
Details of series [6]: method as in PMID 6813497. Conditions: cited from earlier work.
Series [7] relates to T. b. rhodesiense strain STIB 900, trypomastigotes. The experiment in a line: in vitro. The settings on record: for IC50: read-out: IC50 T. b. rhod. The method, then:
as §1

Series [8] concerns Entamoeba histolytica. Conditions: cited from earlier work.
The test system of series [9] is T. cruzi, strain Tulahuen C4, intracellular amastigotes. The experiment in a line: microbe, parasite or virus in culture. The settings on record: for IC50: read-out: IC50 T. cruzi; for selectivity ratio: rat, Selectivity index: IC50 Cytotoxicity L6/ IC50 T. cruzi. The method, then:
as §1

In series [10] the test system is L6 cells. Briefly: Cytotoxicity on L6 cells. The method, then: as §1
Series [11] in a line: In vitro cytotoxicity with mouse peritoneal macrophages (Alamar Blue). The format is cell-based. The settings on record: mouse. The method, then: After 96 h of incubation, the plates were inspected under an inverted microscope to assure sterility. […] The IC50 values were calculated by linear regression from the sigmoidal dose inhibition curves using SoftmaxPro software (Molecular Devices Cooperation, Sunnyvale, CA, USA).
For orientation: The colour change of resazurin is a common sign of viable cells or microbes.

Series [12] in a line: Cytotoxicity on macrophages infected with L. donovani. In kind it is cell-based, mouse. The settings on record: mouse, macrophages infected with L. donovani, read-out: IC50 Cytotox. mac.inf.
Series [13] deals with L. donovani strain MHOM-ET-67/L82 amastigotes. Briefly: in vitro. The settings on record: mouse, Selectivity index: IC50 Cytotoxicity macrophages/ IC50 L. donovani. The procedure, abridged:
as §2

Series [14] in a line: in vitro. The settings on record: rat. Here is the method: as §1
The test system of series [15] is T. brucei. The arrangement: method as in PMID 11302796. The settings on record: cited from earlier work.
Setting [16] is: macrophages infected with L. donovani, read-out: IC50 Cytotox. mac.inf.
Where [17] appears, read: intracellular amastigotes in mouse peritoneal macrophages, strain MHOM-ET-67/L82, 96 h.
Where [18] appears, read: read-out: IC50 P. falc. K1, strain K1, means of two independent assays.
Setting [19] is: rats, oral single dose 6.7 mg /kg.
The mark [20] stands for this setting: strain STIB 900, trypomastigotes, means of two independent assays.
The mark [21] stands for this setting: strain Tulahuen C4, intracellular amastigotes, means of two independent assays.
The mark [22] stands for this setting: read-out: IC50 Cytotox. L6, L6 cells, means of two independent assays.
[23] abbreviates: Leishmania donovani, Peritoneal macrophage, in Mus musculus, 96 h.
Where [24] appears, read: Plasmodium falciparum, K1, read-out: IC50 P. falc. K1.
Setting [25] is: L6 cells, IC50 Cytotox. L6, L6 cells, means of two independent assays.

What is called IC50 is the concentration that inhibits the measured activity by half.

Where two headings read alike, the source gives them in different places.

`CC(=O)OC[C@H]1O[C@@H]([S-])[C@H](OC(C)=O)[C@@H](OC(C)=O)[C@@H]1OC(C)=O.CCP(CC)CC.[Au+]` [Auranofin]: the IC50 is 4.42 µM in [1] (setting [16]); 0.11 µM in series [2]; more than 1.47 µM in series [4] (setting [17]); 1.67 µM in series [5] (setting [18]); 0.01 µM in series [7] (setting [20]); 2.27 µM in series [9] (setting [21]). The half-inhibitory concentration (IC50) in series [10] (setting [22]) is 4.79 µM. The “In vivo efficacy (reduction of parasitemia or increased survival time)” value in series [3] was “no in vivo efficacy was observed”. Also, in series [4], the “Activity against intracellular amastigotes at a fixed concentration” value is “did not exhibit activity”. The Bioavailability in series [6] was 17–23%. Also, the “Terminal half-life based on blood levels” value in series [6] (setting [19]) is 29 h. Further, in series [6] (setting [19]), the “Terminal half-life based on serum levels” value is 43 h. Also, the “Selectivity index: IC50 Cytotoxicity L6/ IC50 T. b. rhodesiense” value in series [7] came to 479. Besides, the “Times better activity against Entamoeba histolytica than the standard drug metronidazole” value in [8] was 10 times.

In the case of `NNC(=O)c1ccncc1` [Izoniazide], the IC50 was more than 219 µM in series [1]; more than 656 µM in series [2]; more than 219 µM in series [4] (setting [17]); more than 36.5 µM in series [5] (setting [18]); more than 656 µM in [7] (setting [20]); more than 656 µM in [10].

Consider Bacitracine, for which the concentration for half-maximal inhibition (IC50) in series [2] was more than 70.3 µM; in series [4] (setting [17]), more than 21.1 µM; in [5] (setting [18]), 19.8 µM; in series [7] (setting [20]), more than 70.3 µM; in series [9] (setting [21]), 47.1 µM; in [10] (setting [22]), 42.2 µM.

As to `CC1CS(=O)(=O)CCN1/N=C/c1ccc([N+](=O)[O-])o1` (stereo not shown) [Nifurtimox], the IC50 at 96 h in series [11] is 15.7 µM; in series [12] it was 34.8 µM. Further, the IC50 is more than 34.8 µM in series [1] (setting [16]); 2.76 µM in series [2] (Leishmania donovani); 20.7 µM in series [4] (setting [23]); 1.44 µM in [7] (Trypanosoma brucei); 0.19 µM in [9] (Trypanosoma cruzi, TULAHUEN); 87 µM in [14] (IC50 Cytotox. L6). The selectivity ratio at 96 h in series [13] worked out at 13. Also, the “Activity against T. b. rhodesiense (in words)” value in series [7] (in vitro) is “active”. The selectivity ratio in series [7] (rat, Selectivity index: IC50 Cytotoxicity L6/ IC50 T. b. rhodesiense) is 60; in series [9] it was 458.

Take `Cc1cc(C2CCCCC2)n(O)c(=O)c1` [Ciclopirox olamine]: the concentration for half-maximal inhibition (IC50) at 96 h in series [11] and in series [12] was 20.3 µM in each case. The IC50 is more than 11.2 µM in series [1] (setting [16]); 1.64 µM in series [2] (Leishmania donovani); 9.09 µM in series [4] (setting [23]); 3.75 µM in [5] (setting [24]); 0.8 µM in [7] (Trypanosoma brucei); 2.49 µM in series [9] (Trypanosoma cruzi, TULAHUEN). Moreover, in series [14] (IC50 Cytotox. L6), the IC50 worked out at 1.04 µM. In addition, the selectivity ratio at 96 h in series [13] (mouse peritoneal macrophages versus L. donovani amastigotes, axenic or intracellular IC50 not specified) was determined as 9.

`O=C(O)c1nn(Cc2ccc(Cl)cc2Cl)c2ccccc12` [Lonidamine]: the IC50 at 96 h in series [12] was more than 93.4 µM. In addition, the IC50 in series [1] (setting [16]) is more than 93.4 µM; in series [2] (Leishmania donovani), 8.66 µM; in series [4] (setting [23]), more than 93.4 µM; in [5] (setting [24]), more than 15.6 µM; in [7] (Trypanosoma brucei), 135 µM; in [9] (Trypanosoma cruzi, TULAHUEN), 177 µM. The molecule further showed an IC50 in series [14] (IC50 Cytotox. L6) of 273 µM. The selectivity ratio at 96 h in series [13] is more than 11.

Turning to `O=C(Nc1ccc([N+](=O)[O-])cc1Cl)c1cc(Cl)ccc1O` [Niclosamide], the MCC at 96 h in [12] was 1010 nM. For the same molecule, the “Concentrations toxic to mouse macrophages” value in [1] (mouse, 96 h) was more than 300 ng/mL. The concentration for half-maximal inhibition (IC50) in [2] (Leishmania donovani) is 0.15 µM; in [4] (setting [23]) it was more than 0.31 µM; in series [5] (setting [24]), 1.14 µM; in [7] (Trypanosoma brucei) it was 1.67 µM; in series [9] (Trypanosoma cruzi, TULAHUEN), 2.49 µM; in series [14] (IC50 Cytotox. L6), 2.3 µM. The “Activity against intracellular amastigotes at a fixed concentration” value in series [4] (at a concentration of 0.1 μg/ml) is “inactive”.

Regarding `CCC[C@@]1(CCc2ccccc2)CC(O)=C([C@H](CC)c2cccc(NS(=O)(=O)c3ccc(C(F)(F)F)cn3)c2)C(=O)O1` [Tipranavir], the IC50 at 96 h in series [12] (mouse peritoneal macrophages infected with L. donovani) is more than 50 µM. For the same molecule, the IC50 in series [1] (setting [16]) is more than 49.8 µM; in [2] (Leishmania donovani), less than 3 µM; in series [2] it was 1.64 µM; in series [4] (setting [23]), more than 49.8 µM; in [5] (setting [24]) it was 44.6 µM; in series [7] (Trypanosoma brucei) it was 26.4 µM. Moreover, the IC50 is 28.2 µM in series [9] (Trypanosoma cruzi, TULAHUEN) and 53.4 µM in [14] (setting [25]). Also, in series [13], the selectivity ratio at 96 h is more than 30.

For `OC(Cn1cncn1)(Cn1cncn1)c1ccc(F)cc1F` [Fluconazole], the half-maximal inhibitory concentration (IC50) at 96 h in series [12] was more than 98 µM. Also, the IC50 in series [2] (Leishmania donovani) was 211 µM; in series [4] (setting [23]), more than 98 µM; in series [7] (Trypanosoma brucei), 273 µM; in series [9] (Trypanosoma cruzi, TULAHUEN), 9.96 µM; in series [14] (setting [25]), more than 294 µM; in series [10] (setting [22]), more than 294 µM. In addition, the selectivity ratio in series [9] was more than 30.

In the case of `NC1CCC(C23CC4CC(CC(C4)C2)C3)CC1` (stereo not shown) [1-adamantyl-4-amino-cyclohexane], the “Times more effective than rimantadine” value in series [15] is 20 to 25 times.

Values taken from publication PMC4535766, “Antiprotozoal Activity Profiling of Approved Drugs: A Starting Point toward Drug Repositioning” (PLoS ONE, 2015).
